In patent publication US20260217711A1, “TRIAZOLOPYRIDINYL ETHER LINKED COMPOUNDS AS KINASE INHIBITORS” (Bristol-Myers Squibb Company, priority 2023, published 2026):
Read-outs that look alike come from different tables or passages of the source.

Tests used:
[1] = biological target: T1, MDR1 P-glycoprotein (P-gp) (Homo sapiens, UniProt P08183); assay: Transporter assay, bi-directional transport, MDCK-MDR1 cells; type: in vitro ADME; conditions: basolateral to apical / apical to basolateral, >2 = substrate; for efflux ratio at 2 h, 0.1 uM: human, MDCK-MDR1, 0.1 uM, read-out: PGP (efflux ratio); for PGP (efflux ratio): 0.1 uM, 2 hours
T1 construct: host or cells: MDCK (MDCK-MDR1)
Protocol: (§1) Compounds were assessed as substrates of MDR1 P-glycoprotein (P-gp) and mouse Breast Cancer Resistance Protein (mBcrp) at 0.1 uM, for 2 hours, in bi-directional transport assays using recombinant MDCK cell lines as described previously (Feng et al. Drug Metabolism and Disposition 2008, Vol. 36:268-275). MDCK-MDR1 and MDCK-mBcrp cells were acquired from the National Institutes of Health (Bethesda, MID) and the Netherlands Cancer Institute respectively, and used under license agreement. Data are expressed as efflux ratios, where transport across the cell monolayer in the basolateral to apical direction is divided by transport in the apical to basolateral direction. Efflux ratios >2 indicate the test compound is a substrate of the transporter tested.

[2] = biological target: T2, mouse Breast Cancer Resistance Protein (mBcrp) (Mus musculus, UniProt Q7TMS5); assay: Transporter assay, bi-directional transport, MDCK-mBcrp cells; type: in vitro ADME; conditions: basolateral to apical / apical to basolateral, >2 = substrate; for efflux ratio at 2 h, 0.1 uM: mouse, read-out: BCRP (efflux ratio); for BCRP (efflux ratio): 0.1 uM, 2 hours
T2 construct: host or cells: MDCK (MDCK-mBcrp)
T2 sequence (Q7TMS5 1-657): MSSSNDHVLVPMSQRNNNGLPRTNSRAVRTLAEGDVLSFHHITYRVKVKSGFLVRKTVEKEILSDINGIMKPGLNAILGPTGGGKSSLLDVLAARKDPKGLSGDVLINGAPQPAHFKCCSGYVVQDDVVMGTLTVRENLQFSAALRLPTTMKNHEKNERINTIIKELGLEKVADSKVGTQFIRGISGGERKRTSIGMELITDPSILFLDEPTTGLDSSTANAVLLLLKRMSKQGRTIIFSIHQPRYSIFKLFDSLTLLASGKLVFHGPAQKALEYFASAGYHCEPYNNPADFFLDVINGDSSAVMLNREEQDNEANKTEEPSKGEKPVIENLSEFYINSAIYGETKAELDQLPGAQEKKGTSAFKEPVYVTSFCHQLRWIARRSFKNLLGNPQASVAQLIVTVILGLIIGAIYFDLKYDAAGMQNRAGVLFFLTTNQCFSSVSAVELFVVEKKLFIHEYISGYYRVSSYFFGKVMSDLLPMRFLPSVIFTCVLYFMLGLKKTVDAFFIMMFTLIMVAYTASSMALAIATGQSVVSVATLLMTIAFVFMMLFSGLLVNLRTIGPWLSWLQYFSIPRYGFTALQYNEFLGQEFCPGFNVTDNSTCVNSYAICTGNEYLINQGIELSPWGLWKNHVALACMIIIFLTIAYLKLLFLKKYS
Protocol: as §1

[3] = tested on: MLKL phosphorylation (pMLKL) in HT29-L23 cells; assay: MLKL Phosphorylation High-Content Assay; type: cell-based; conditions: 6 h, necroptosis induced with human TNFα, SMAC mimetic and Z-VAD, read-out: LE pMLKL HC IC50
Summary of the method: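 HT29-L23 cells incubated 6 h at 37° C before detection of phospho-MLKL by immunostaining with anti-phospho-MLKL antibody (1:1000 in PBS/0.1% BSA, overnight at 4° C). Readout by high-content imaging with compartmental image analysis.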

[4] = tested on: hWB; assay: hWB; type: cell-based; conditions: printed as "hWB" value in the pMLKL IC50 column; no method given

T1 sequence (P08183 whole entry): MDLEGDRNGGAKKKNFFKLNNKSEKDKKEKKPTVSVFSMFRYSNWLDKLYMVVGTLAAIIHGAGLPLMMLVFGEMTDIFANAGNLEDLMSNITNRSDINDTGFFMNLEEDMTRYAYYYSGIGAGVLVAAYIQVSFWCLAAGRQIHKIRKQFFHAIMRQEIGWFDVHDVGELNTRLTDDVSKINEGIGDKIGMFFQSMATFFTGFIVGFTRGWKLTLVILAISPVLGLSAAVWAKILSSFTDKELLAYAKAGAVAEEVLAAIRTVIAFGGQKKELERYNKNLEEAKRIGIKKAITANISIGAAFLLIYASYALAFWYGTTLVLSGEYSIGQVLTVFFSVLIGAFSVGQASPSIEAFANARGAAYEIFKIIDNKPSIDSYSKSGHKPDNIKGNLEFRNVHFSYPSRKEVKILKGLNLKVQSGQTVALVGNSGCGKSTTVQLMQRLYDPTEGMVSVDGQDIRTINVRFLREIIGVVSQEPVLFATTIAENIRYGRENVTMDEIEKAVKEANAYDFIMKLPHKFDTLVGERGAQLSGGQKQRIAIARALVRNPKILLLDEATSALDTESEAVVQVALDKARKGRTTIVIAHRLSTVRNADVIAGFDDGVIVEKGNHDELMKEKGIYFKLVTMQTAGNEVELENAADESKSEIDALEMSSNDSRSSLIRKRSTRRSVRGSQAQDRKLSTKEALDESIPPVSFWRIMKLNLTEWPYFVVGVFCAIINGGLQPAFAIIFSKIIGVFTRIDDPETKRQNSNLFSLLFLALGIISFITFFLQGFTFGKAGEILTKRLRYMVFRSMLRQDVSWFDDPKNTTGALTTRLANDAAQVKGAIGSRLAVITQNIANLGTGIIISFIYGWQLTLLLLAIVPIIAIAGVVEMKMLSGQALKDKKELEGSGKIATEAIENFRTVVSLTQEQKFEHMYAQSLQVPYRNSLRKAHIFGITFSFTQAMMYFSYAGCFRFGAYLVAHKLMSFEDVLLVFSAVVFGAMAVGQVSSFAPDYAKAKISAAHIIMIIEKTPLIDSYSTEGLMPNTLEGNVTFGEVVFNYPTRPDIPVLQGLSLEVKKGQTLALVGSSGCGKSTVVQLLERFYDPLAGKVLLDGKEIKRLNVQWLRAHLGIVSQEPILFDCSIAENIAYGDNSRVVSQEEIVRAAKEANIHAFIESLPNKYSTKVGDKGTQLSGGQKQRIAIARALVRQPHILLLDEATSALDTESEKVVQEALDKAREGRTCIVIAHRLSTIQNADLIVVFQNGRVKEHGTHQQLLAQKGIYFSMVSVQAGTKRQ

efflux ratio at 2 h, 0.1 uM [1] | efflux ratio at 2 h, 0.1 uM [2] | PGP (efflux ratio) [1] | BCRP (efflux ratio) [2] | SMILES | IC50 ([3]; Homo sapiens) | IC50 [3] | IC50 [4]
1.5 | 4 |  |  | C[C@](O)(c1ccc(F)cc1)C(F)(F)CCOc1c(F)ccc(-c2ccn3nc(N)nc3c2)c1F (single isomer, unassigned) [Example 49, 5-(3-(2-amino-[1,2,4]triazolo[1,5-a]pyridin-7-yl)-2,6-difluorophenoxy)-3,3-difluoro-2-(4-fluorophenyl)pentan-2-ol] | 34 nM |  | 
1.4 | 2.9 |  |  | [2H]C([2H])(CC(F)(F)C(C)(O)c1ccc(F)cc1)Oc1c(F)ccc(-c2ccn3nc(N)nc3c2)c1F (single isomer, unassigned) [Example 15, 5-(3-(2-amino-[1,2,4]triazolo[1,5-a]pyridin-7-yl)-2,6-difluorophenoxy)-3,3-difluoro-2-(4-fluorophenyl)pentan-5,5-d2-2-ol] |  | 0.3 nM | 
1.7 | 4.8 |  |  | CC(O)(c1ccccc1)C(F)(F)CCOc1c(F)ccc(-c2ccn3nc(N)nc3c2)c1F (single isomer, unassigned) [Example 40, 5-(3-(2-amino-[1,2,4]triazolo[1,5-a]pyridin-7-yl)-2,6-difluorophenoxy)-3,3-difluoro-2-phenylpentan-2-ol] |  | 0.6 nM | 
1.6 | 2.4 |  |  | C[C@@](O)(c1ccc(F)cc1)C(F)(F)CCOc1c(F)ccc(-c2ccn3nc(N)nc3c2)c1F (single isomer, unassigned) [Example 50, 5-(3-(2-amino-[1,2,4]triazolo[1,5-a]pyridin-7-yl)-2,6-difluorophenoxy)-3,3-difluoro-2-(4-fluorophenyl)pentan-2-ol] | 0.4 nM |  | 
 |  | 1.5 | 1.7 | CC(O)(c1ccc(F)cc1)C(F)(F)CCOc1c(Cl)ccc(-c2ccn3nc(N)nc3c2)c1F (single isomer, unassigned) [Example 4, 5-(3-(2-amino-[1,2,4]triazolo[1,5-a]pyridin-7-yl)-6-chloro-2-fluorophenoxy)-3,3-difluoro-2-(4-fluorophenyl)pentan-2-ol] |  | 0.5 nM | 
 |  | 1.2 | 3.4 | CC(O)(c1ccc(F)cc1)C(F)(F)CCOc1cccc(-c2ccn3nc(N)nc3c2)c1F (single isomer, unassigned) [Example 3, 5-(3-(2-amino-[1,2,4]triazolo[1,5-a]pyridin-7-yl)-2-fluorophenoxy)-3,3-difluoro-2-(4-fluorophenyl)pentan-2-ol] |  | 0.1 nM | 
1.5 | 1.7 |  |  | CC(O)(c1ccc(F)cc1)C(F)(F)CCOc1c(Cl)ccc(-c2ccn3nc(N)nc3c2)c1F (single isomer, unassigned) [Example 52, 5-(3-(2-amino-[1,2,4]triazolo[1,5-a]pyridin-7-yl)-6-chloro-2-fluorophenoxy)-3,3-difluoro-2-(4-fluorophenyl)pentan-2-ol] |  | 0.5 nM | 
1.8 | 6.2 |  |  | CC(O)(c1ccc(F)cc1)C(F)(F)CCOc1cccc(-c2ccn3nc(N)nc3c2)c1F (single isomer, unassigned) [Example 2, 5-(3-(2-amino-[1,2,4]triazolo[1,5-a]pyridin-7-yl)-2-fluorophenoxy)-3,3-difluoro-2-(4-fluorophenyl)pentan-2-ol] |  | 4 nM | 

More lines, now with the values behind:

SMILES | efflux ratio at 2 h, 0.1 uM [1] | efflux ratio at 2 h, 0.1 uM [2] | PGP (efflux ratio) [1] | BCRP (efflux ratio) [2] | IC50 ([3]; Homo sapiens) | IC50 [3] | IC50 [4]
Cc1ccc(-c2ccn3nc(N)nc3c2)c(F)c1C(=O)NCC(F)(F)C(O)c1ccc(F)cc1 (centres unmarked) [Example 30 from WO2022/086828, reference compound] | 35 | 43 |  |  |  |  | 
CC(O)(c1ccc(F)cn1)C(F)(F)CCOc1c(Cl)ccc(-c2ccn3nc(N)nc3c2)c1F (single isomer, unassigned) [Example 31, 5-(3-(2-amino-[1,2,4]triazolo[1,5-a]pyridin-7-yl)-6-chloro-2-fluorophenoxy)-3,3-difluoro-2-(5-fluoropyridin-2-yl)pentan-2-ol] | 5.3 | 1.4 |  |  |  | 2 nM | 
CC(O)(c1ccc(F)cn1)C(F)(F)CCOc1c(F)ccc(-c2ccn3nc(N)nc3c2)c1F (single isomer, unassigned) [Example 28, 5-(3-(2-amino-[1,2,4]triazolo[1,5-a]pyridin-7-yl)-2,6-difluorophenoxy)-3,3-difluoro-2-(5-fluoropyridin-2-yl)pentan-2-ol] |  |  |  |  |  |  | 82 nM
CC(O)(c1ccc(F)cc1)C(F)(F)CCOc1c(F)cc(F)c(-c2ccn3nc(N)nc3c2)c1F (single isomer, unassigned) [Example 29, 5-(3-(2-amino-[1,2,4]triazolo[1,5-a]pyridin-7-yl)-2,4,6-trifluorophenoxy)-3,3-difluoro-2-(4-fluorophenyl)pentan-2-ol] | 1.6 | 2.5 |  |  |  |  | 4 nM
CC(O)(c1ccc(F)cc1)C(F)(F)CCOc1ccc(Cl)c(-c2ccn3nc(N)nc3c2)n1 (single isomer, unassigned) [Example 80, 5-((6-(2-amino-[1,2,4]triazolo[1,5-a]pyridin-7-yl)-5-chloropyridin-2-yl)oxy)-3,3-difluoro-2-(4-fluorophenyl)pentan-2-ol] | 5.9 | 5.6 |  |  |  | 6.8 nM | 
Nc1nc2cc(-c3ccc(F)c(OCCC(F)(F)C(O)c4ccc(F)cn4)c3F)ccn2n1 (single isomer, unassigned) [Example 34, 4-(3-(2-amino-[1,2,4]triazolo[1,5-a]pyridin-7-yl)-2,6-difluorophenoxy)-2,2-difluoro-1-(5-fluoropyridin-2-yl)butan-1-ol] | 2.4 | 7 |  |  | 8 nM |  | 
CC(O)(c1ccccc1)C(F)(F)CCOc1c(F)ccc(-c2ccn3nc(N)nc3c2F)c1F (single isomer, unassigned) [Example 38, 5-(3-(2-amino-8-fluoro-[1,2,4]triazolo[1,5-a]pyridin-7-yl)-2,6-difluorophenoxy)-3,3-difluoro-2-phenylpentan-2-ol] | 2.1 | 5.1 |  |  | 0.3 nM |  | 
[2H]C([2H])(CC(F)(F)C(C)(O)c1ccc(F)cc1)Oc1cccc(-c2ccn3nc(N)nc3c2)c1F (single isomer, unassigned) [Example 13, 5-(3-(2-amino-[1,2,4]triazolo[1,5-a]pyridin-7-yl)-2-fluorophenoxy)-3,3-difluoro-2-(4-fluorophenyl)pentan-5,5-d2-2-ol] | 1.8 | 3.9 |  |  |  | 0.1 nM | 
Nc1nc2cc(-c3ccc(F)c(OCCC(F)(F)C(O)c4ccc(F)cc4)c3)ccn2n1 (single isomer, unassigned) [Example 54, 4-(5-(2-amino-[1,2,4]triazolo[1,5-a]pyridin-7-yl)-2-fluorophenoxy)-2,2-difluoro-1-(4-fluorophenyl)butan-1-ol] |  |  |  |  |  | 32 nM | 
Nc1nc2cc(-c3cccc(OCCC(F)C(O)c4ccc(F)cc4)c3F)ccn2n1 (single isomer, unassigned) [Example 86, 4-(3-(2-amino-[1,2,4]triazolo[1,5-a]pyridin-7-yl)-2-fluorophenoxy)-2-fluoro-1-(4-fluorophenyl)butan-1-ol] |  |  |  |  |  | 17 nM | 
